Measured values: patent US11524968B2, “Heterocyclic compound as a protein kinase inhibitor” (HK inno.N Corporation, priority 2017, dated 2022)

Biological target: JAK1 (Homo sapiens (Human), UniProt P23458)
Experiment: Analysis of JAK1 activity inhibition ability (ADP-Glo Kinase Assay)
Type: biochemical
Details: JAK1 enzyme, ADP-Glo luminescence, ATP 250 uM, IRS-itide substrate, 30° C. 40 minutes; read-out: IC50
Outline: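 JAK1 enzyme, IRS-itide substrate (40 ng/mL) and 250 uM ATP, both as prepared in kinase buffer (Tris-HCl pH 7.5, MgCl2, BSA, DTT), reacted with compound 40 min at 30 °C. ADP formed was detected by ADP-Glo luminescence; IC50 is the concentration giving 50% inhibition versus control.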

Chain of JAK1 (P23458 whole entry): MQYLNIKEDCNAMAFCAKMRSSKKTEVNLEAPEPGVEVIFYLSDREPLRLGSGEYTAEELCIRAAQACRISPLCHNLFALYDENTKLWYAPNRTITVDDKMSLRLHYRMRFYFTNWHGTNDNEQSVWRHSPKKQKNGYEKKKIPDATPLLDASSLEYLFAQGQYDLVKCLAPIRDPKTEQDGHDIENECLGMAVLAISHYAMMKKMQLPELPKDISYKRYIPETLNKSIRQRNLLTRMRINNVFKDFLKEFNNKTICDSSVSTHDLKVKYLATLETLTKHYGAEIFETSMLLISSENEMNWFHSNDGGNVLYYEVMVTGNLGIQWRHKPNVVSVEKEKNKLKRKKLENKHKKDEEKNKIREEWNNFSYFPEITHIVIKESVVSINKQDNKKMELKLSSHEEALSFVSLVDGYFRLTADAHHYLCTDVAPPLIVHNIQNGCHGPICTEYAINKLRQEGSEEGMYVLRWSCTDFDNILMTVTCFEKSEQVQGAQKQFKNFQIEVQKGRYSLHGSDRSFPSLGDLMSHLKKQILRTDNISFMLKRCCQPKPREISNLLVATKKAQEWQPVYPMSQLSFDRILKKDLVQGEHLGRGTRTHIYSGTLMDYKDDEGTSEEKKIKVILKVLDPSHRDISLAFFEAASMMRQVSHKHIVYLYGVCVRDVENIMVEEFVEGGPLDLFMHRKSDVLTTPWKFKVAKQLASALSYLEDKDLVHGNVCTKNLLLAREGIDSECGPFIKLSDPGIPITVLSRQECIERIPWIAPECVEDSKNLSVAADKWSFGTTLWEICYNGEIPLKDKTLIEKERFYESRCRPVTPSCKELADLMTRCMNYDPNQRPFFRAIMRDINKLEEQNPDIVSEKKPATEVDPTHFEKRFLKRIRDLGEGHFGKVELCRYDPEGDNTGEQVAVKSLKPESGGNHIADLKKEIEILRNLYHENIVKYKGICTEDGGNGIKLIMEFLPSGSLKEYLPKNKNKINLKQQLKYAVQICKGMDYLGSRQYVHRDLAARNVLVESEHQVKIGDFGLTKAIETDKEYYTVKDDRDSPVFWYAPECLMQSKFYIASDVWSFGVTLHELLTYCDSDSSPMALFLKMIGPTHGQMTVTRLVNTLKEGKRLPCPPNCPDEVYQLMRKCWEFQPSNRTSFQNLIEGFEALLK

IC50 [nM]	Compound
< 20	N#CCCn1ccc(-c2cc(NC(=O)C3CC3)nc3[nH]ccc23)c1 [Example 483, N-(4-(1-(2-cyanoethyl)-1H-pyrrol-3-yl)-1H-pyrrolo[2,3-b]pyridin-6-yl)cyclopropanecarboxamide]
> 200	O=C(Nc1cc(C2=CCN(CCN3CCOCC3)C2)c2cc[nH]c2n1)C1CC1 [Example 484, N-(4-(1-(2-morpholinoethyl)-2,5-dihydro-1H-pyrrol-3-yl)-1H-pyrrolo[2,3-b]pyridin-6-yl)cyclopropanecarboxamide]
20 to 200	N#CCCN1CC=C(c2cc(NC(=O)C3CC3)nc3[nH]ccc23)C1 [Example 485, N-(4-(1-(2-cyanoethyl)-2,5-dihydro-1H-pyrrol-3-yl)-1H-pyrrolo[2,3-b]pyridin-6-yl)cyclopropanecarboxamide]
> 200	O=C(Nc1cc(C2=CCC(NC3CCN(C(=O)c4cc(F)cc(F)c4)CC3)CC2)c2cc[nH]c2n1)C1CC1 (stereo not drawn) [Example 491, N-(4-(4-((1-(3,5-difluorobenzoyl)piperidin-4-yl)amino)cyclohex-1-en-1-yl)-1H-pyrrolo[2,3-b]pyridin-6-yl)cyclopropanecarboxamide]
> 200	O=C(Nc1cc(C2=CCC(NC3CCN(C(=O)C4CCCCC4)CC3)CC2)c2cc[nH]c2n1)C1CC1 (stereo not drawn) [Example 492, N-(4-(4-((1-(cyclohexanecarbonyl)piperidin-4-yl)amino)cyclohex-1-en-1-yl)-1H-pyrrolo[2,3-b]pyridin-6-yl)cyclopropanecarboxamide]
20 to 200	O=C(Nc1cc(C2=CCC(NC3CCN(C(=O)c4ccnc(F)c4)CC3)CC2)c2cc[nH]c2n1)C1CC1 (stereo not drawn) [Example 493, N-(4-(4-((1-(2-fluoroisonicotinoyl)piperidin-4-yl)amino)cyclohex-1-en-1-yl)-1H-pyrrolo[2,3-b]pyridin-6-yl)cyclopropanecarboxamide]
> 200	O=C(Nc1cc(C2=CCC(NC3CCN(C(=O)c4ccc([N+](=O)[O-])cc4)CC3)CC2)c2cc[nH]c2n1)C1CC1 (stereo not drawn) [Example 494, N-(4-(4-((1-(4-nitrobenzoyl)piperidin-4-yl)amino)cyclohex-1-en-1-yl)-1H-pyrrolo[2,3-b]pyridin-6-yl)cyclopropanecarboxamide]
20 to 200	O=C(Nc1cc(C2=CCC(NC3CN(C(=O)c4cc(F)cc(F)c4)C3)CC2)c2cc[nH]c2n1)C1CC1 (stereo not drawn) [Example 495, N-(4-(4-((1-(3,5-difluorobenzoyl)azetidin-3-yl)amino)cyclohex-1-en-1-yl)-1H-pyrrolo[2,3-b]pyridin-6-yl)cyclopropanecarboxamide]
> 200	O=C(Nc1cc(C2=CCC(NC3CN(C(=O)c4ccnc(F)c4)C3)CC2)c2cc[nH]c2n1)C1CC1 (stereo not drawn) [Example 496, N-(4-(4-((1-(2-fluoroisonicotinoyl)azetidin-3-yl)amino)cyclohex-1-en-1-yl)-1H-pyrrolo[2,3-b]pyridin-6-yl)cyclopropanecarboxamide]
20 to 200	COc1cc(C(=O)N2CC(NC3CC=C(c4cc(NC(=O)C5CC5)nc5[nH]ccc45)CC3)C2)ccn1 (stereo not drawn) [Example 497, N-(4-(4-((1-(2-methoxyisonicotinoyl)azetidin-3-yl)amino)cyclohex-1-en-1-yl)-1H-pyrrolo[2,3-b]pyridin-6-yl)cyclopropanecarboxamide]
20 to 200	O=C(Nc1cc(-c2ccc(NC3CCN(C(=O)Nc4ccccc4)CC3)c(F)c2)c2cc[nH]c2n1)C1CC1 [Example 498, 4-((4-(6-(cyclopropanecarboxamido)-1H-pyrrolo[2,3-b]pyridin-4-yl)-2-fluorophenyl)amino)-N-phenylpiperidine-1-carboxamide]
> 200	O=C(Nc1cc(-c2ccc(NC3CCN(C(=O)c4cc(F)cc(F)c4)CC3)c(F)c2)c2cc[nH]c2n1)C1CC1 [Example 499, N-(4-(4-((1-(3,5-difluorobenzoyl)piperidin-4-yl)amino)-3-fluorophenyl)-1H-pyrrolo[2,3-b]pyridin-6-yl)cyclopropanecarboxamide]
> 200	O=C(Nc1cc(-c2ccc(NC3CCN(C(=O)c4ccnc(F)c4)CC3)c(F)c2)c2cc[nH]c2n1)C1CC1 [Example 500, N-(4-(3-fluoro-4-((1-(2-fluoroisonicotinoyl)piperidin-4-yl)amino)phenyl)-1H-pyrrolo[2,3-b]pyridin-6-yl)cyclopropanecarboxamide]
20 to 200	O=C(Nc1cc(-c2ccc(NC3CCN(C(=O)Nc4ccc(F)cc4F)CC3)c(F)c2)c2cc[nH]c2n1)C1CC1 [Example 501, 4-((4-(6-(cyclopropanecarboxamido)-1H-pyrrolo[2,3-b]pyridin-4-yl)-2-fluorophenyl)amino)-N-(2,4-difluorophenyl)piperidine-1-carboxamide]
> 200	C[C@H]1CC(Nc2ccc(-c3cc(NC(=O)C4CC4)nc4[nH]ccc34)cc2)CCN1C(=O)c1cc(F)cc(F)c1 (stereo partly drawn) [Example 502, N-(4-(4-(((2S)-1-(3,5-difluorobenzoyl)-2-methylpiperidin-4-yl)amino)phenyl)-1H-pyrrolo[2,3-b]pyridin-6-yl)cyclopropanecarboxamide]
> 200	C[C@H]1CC(Nc2ccc(-c3cc(NC(=O)C4CC4)nc4[nH]ccc34)cc2)CCN1C(=O)c1ccnc(F)c1 (stereo partly drawn) [Example 503, N-(4-(4-(((2S)-1-(2-fluoroisonicotinoyl)-2-methylpiperidin-4-yl)amino)phenyl)-1H-pyrrolo[2,3-b]pyridin-6-yl)cyclopropanecarboxamide]
> 200	C[C@H]1CC(Nc2ccc(-c3cc(NC(=O)C4CC4)nc4[nH]ccc34)cc2)CCN1C(=O)NCC(F)(F)F (stereo partly drawn) [Example 504, (2S)-4-((4-(6-(cyclopropanecarboxamido)-1H-pyrrolo[2,3-b]pyridin-4-yl)phenyl)amino)-2-methyl-N-(2,2,2-trifluoroethyl)piperidine-1-carboxamide]
20 to 200	O=C(Nc1cc(-c2ccc(NC3CCN(C(=O)NCC(F)(F)F)CC3)c(F)c2)c2cc[nH]c2n1)C1CC1 [Example 505, 4-((4-(6-(cyclopropanecarboxamido)-1H-pyrrolo[2,3-b]pyridin-4-yl)-2-fluorophenyl)amino)-N-(2,2,2-trifluoroethyl)piperidine-1-carboxamide]
20 to 200	C[C@H]1CC(Nc2ccc(-c3cc(NC(=O)C4CC4)nc4[nH]ccc34)cc2)CCN1C(=O)Nc1ccc(F)cc1F (stereo partly drawn) [Example 506, (2S)-4-((4-(6-(cyclopropanecarboxamido)-1H-pyrrolo[2,3-b]pyridin-4-yl)phenyl)amino)-N-(2,4-difluorophenyl)-2-methylpiperidine-1-carboxamide]
> 200	O=C(Nc1cc(-c2ccc(NC3CCN(C(=O)c4ccncc4)CC3)cc2)c2cc[nH]c2n1)C1CC1 [Example 507, N-(4-(4-((1-isonicotinoylpiperidin-4-yl)amino)phenyl)-1H-pyrrolo[2,3-b]pyridin-6-yl)cyclopropanecarboxamide]
> 200	O=C(Nc1cc(-c2ccc(NC3CCN(C(=O)c4cc(F)cc(F)c4)CC3)cc2)c2cc[nH]c2n1)C1CC1 [Example 508, N-(4-(4-((1-(3,5-difluorobenzoyl)piperidin-4-yl)amino)phenyl)-1H-pyrrolo[2,3-b]pyridin-6-yl)cyclopropanecarboxamide]
> 200	O=C(Nc1cc(-c2ccc(NC3CCN(C(=O)c4ccnc(F)c4)CC3)cc2)c2cc[nH]c2n1)C1CC1 [Example 509, N-(4-(4-((1-(2-fluoroisonicotinoyl)piperidin-4-yl)amino)phenyl)-1H-pyrrolo[2,3-b]pyridin-6-yl)cyclopropanecarboxamide]
> 200	O=C(Nc1cc(-c2ccc(NC3CN(C(=O)c4cc(F)cc(F)c4)C3)cc2)c2cc[nH]c2n1)C1CC1 [Example 510, N-(4-(4-((1-(3,5-difluorobenzoyl)azetidin-3-yl)amino)phenyl)-1H-pyrrolo[2,3-b]pyridin-6-yl)cyclopropanecarboxamide]
20 to 200	O=C(Nc1cc(-c2ccc(NC3CCN(C(=O)Nc4ccc(F)cc4F)CC3)cc2)c2cc[nH]c2n1)C1CC1 [Example 511, 4-((4-(6-(cyclopropanecarboxamido)-1H-pyrrolo[2,3-b]pyridin-4-yl)phenyl)amino)-N-(2,4-difluorophenyl)piperidine-1-carboxamide]
20 to 200	O=C(Nc1cc(-c2ccc(NC3CCN(C(=O)NCC(F)(F)F)CC3)cc2)c2cc[nH]c2n1)C1CC1 [Example 512, 4-((4-(6-(cyclopropanecarboxamido)-1H-pyrrolo[2,3-b]pyridin-4-yl)phenyl)amino)-N-(2,2,2-trifluoroethyl)piperidine-1-carboxamide]

Compound	IC50 [nM]
N#CCCN1CC=C(c2cc(NC(=O)C3CC3)nc3[nH]ccc23)CC1 [Example 486, N-(4-(1-(2-cyanoethyl)-1,2,3,6-tetrahydropyridin-4-yl)-1H-pyrrolo[2,3-b]pyridin-6-yl)cyclopropanecarboxamide]	20 to 200
CC1(CN2CC=C(c3cc(NC(=O)C4CC4)nc4[nH]ccc34)CC2)COC1 [Example 487, N-(4-(1-((3-methyloxetan-3-yl)methyl)-1,2,3,6-tetrahydropyridin-4-yl)-1H-pyrrolo[2,3-b]pyridin-6-yl)cyclopropanecarboxamide]	> 200
O=C(Nc1cc(C2=CCN(Cc3ccns3)CC2)c2cc[nH]c2n1)C1CC1 [Example 488, N-(4-(1-(isothiazol-5-ylmethyl)-1,2,3,6-tetrahydropyridin-4-yl)-1H-pyrrolo[2,3-b]pyridin-6-yl)cyclopropanecarboxamide]	< 20
O=C(Nc1cc(C2=CCN(CC3CC3(F)F)CC2)c2cc[nH]c2n1)C1CC1 (stereo not drawn) [Example 489, N-(4-(1-((2,2-difluorocyclopropyl)methyl)-1,2,3,6-tetrahydropyridin-4-yl)-1H-pyrrolo[2,3-b]pyridin-6-yl)cyclopropanecarboxamide]	20 to 200
N#CC1CC(N2CC=C(c3cc(NC(=O)C4CC4)nc4[nH]ccc34)CC2)C1 (stereo not drawn) [Example 490, N-(4-(1-(3-cyanocyclobutyl)-1,2,3,6-tetrahydropyridin-4-yl)-1H-pyrrolo[2,3-b]pyridin-6-yl)cyclopropanecarboxamide]	20 to 200
